Assays:
[1] = molecular target: T1, MTHFD1 recombinant human enzyme (Homo sapiens, UniProt P11586); assay: MTHFD1 inhibition assay (NAD(P)H-Glo luminescence); details: MTHFD1 IC50, recombinant human enzyme 200 nM, NADP, band
T1 sequence (P11586 2-291 limits assumed): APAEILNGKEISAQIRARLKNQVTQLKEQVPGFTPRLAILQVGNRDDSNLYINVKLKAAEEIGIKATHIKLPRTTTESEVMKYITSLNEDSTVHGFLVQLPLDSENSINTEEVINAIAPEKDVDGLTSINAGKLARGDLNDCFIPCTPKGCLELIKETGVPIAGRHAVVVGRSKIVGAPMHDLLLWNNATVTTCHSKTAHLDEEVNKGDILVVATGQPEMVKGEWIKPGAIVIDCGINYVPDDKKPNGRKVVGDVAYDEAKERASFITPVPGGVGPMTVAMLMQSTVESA

[2] = molecular target: T2, MTHFD2 recombinant human enzyme (Homo sapiens, UniProt P13995); assay: MTHFD2 inhibition assay (NAD(P)H-Glo luminescence); details: for MTHFD1/MTHFD2 IC50 ratio: selectivity of MTHFD2 inhibition over MTHFD1, band
T2 sequence (P13995 36-350): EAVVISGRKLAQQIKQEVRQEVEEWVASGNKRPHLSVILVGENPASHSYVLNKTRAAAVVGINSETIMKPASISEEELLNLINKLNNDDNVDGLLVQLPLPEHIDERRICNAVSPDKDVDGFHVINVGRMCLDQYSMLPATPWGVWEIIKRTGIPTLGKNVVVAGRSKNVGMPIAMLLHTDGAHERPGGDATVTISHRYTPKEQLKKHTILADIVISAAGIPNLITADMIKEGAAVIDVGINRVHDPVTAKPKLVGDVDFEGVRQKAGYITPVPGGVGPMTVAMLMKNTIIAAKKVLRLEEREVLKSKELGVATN

Structure (SMILES) | IC50 [1] [nM] | IC50 [2] [nM] | MTHFD1/MTHFD2 IC50 ratio [2]
COC[C@H]1CN(c2cc(C)c3c4c(c(=O)oc3c2C)CN(C(=O)c2cc(C(=O)NS(=O)(=O)N3CCCC3)c(OC3CCC3)cc2F)CC4)CCN1C [Example 165, (R)-2-cyclobutoxy-4-fluoro-5-(8-(3-(methoxymethyl)-4-methylpiperazin-1-yl)-7,10-dimethyl-5-oxo-1,3,4,5-tetrahydro-2H-chromeno[3,4-c]pyridine-3-carbonyl)-N-(pyrrolidin-1-ylsulfonyl)benzamide] | > 5000 | 100 to 1000 | H (>9.0 to 30)
COC[C@H]1CN(c2cc(C)c3c4c(c(=O)oc3c2C)CN(C(=O)c2cc(C(=O)NS(=O)(=O)N3CCCC3)cc(OC3CCC3)c2F)CC4)CCN1C [Example 166, (R)-3-cyclobutoxy-4-fluoro-5-(8-(3-(methoxymethyl)-4-methylpiperazin-1-yl)-7,10-dimethyl-5-oxo-1,3,4,5-tetrahydro-2H-chromeno[3,4-c]pyridine-3-carbonyl)-N-(pyrrolidin-1-ylsulfonyl)benzamide] | > 5000 | 100 to 1000 | G (^ 3 to 9.0)
COC[C@H]1CN(c2cc(C)c3c4c(c(=O)oc3c2C)CN(C(=O)c2cc3c(c(C(=O)NS(=O)(=O)N5CCCC5)c2)OC2(CCC2)O3)CC4)CCN1C [Example 167, (R)-6-(8-(3-(methoxymethyl)-4-methylpiperazin-1-yl)-7,10-dimethyl-5-oxo-1,3,4,5-tetrahydro-2H-chromeno[3,4-c]pyridine-3-carbonyl)-N-(pyrrolidin-1-ylsulfonyl)spiro[benzo[d][1,3]dioxole-2,1′-cyclobutane]-4-carboxamide] | > 5000 | 100 to 1000 | H (>9.0 to 30)
COC[C@H]1CN(c2cc(C)c3c4c(c(=O)oc3c2C)CN(C(=O)c2cc(C(=O)NS(=O)(=O)N3CCCC3)c3c(c2F)OC2(CCC2)O3)CC4)CCN1C [Example 168, (R)-4-fluoro-5-(8-(3-(methoxymethyl)-4-methylpiperazin-1-yl)-7,10-dimethyl-5-oxo-1,3,4,5-tetrahydro-2H-chromeno[3,4-c]pyridine-3-carbonyl)-N-(pyrrolidin-1-ylsulfonyl)spiro[benzo[d][1,3]dioxole-2,1′-cyclobutane]-7-carboxamide] | > 5000 | 1000 to 5000 | F (<3)
COC[C@H]1CN(c2ccc3c4c(c(=O)oc3c2C)CN(C(=O)c2ccc(C(=O)NS(=O)(=O)N3CCCC3)c(OC3CCC3)c2F)CC4)CCN1C(C)C [Example 170, (R)-2-cyclobutoxy-3-fluoro-4-(8-(4-isopropyl-3-(methoxymethyl)piperazin-1-yl)-7-methyl-5-oxo-1,3,4,5-tetrahydro-2H-chromeno[3,4-c]pyridine-3-carbonyl)-N-(pyrrolidin-1-ylsulfonyl)benzamide] | 100 to 1000 | 10 to 100 | G (^ 3 to 9.0)
CCN1CCN(c2ccc3c4c(c(=O)oc3c2C)CN(C(=O)c2ccc(C(=O)NS(=O)(=O)N3CCCC3)c(OC3CCC3)c2F)CC4)C[C@@H]1COC [Example 172, (R)-2-cyclobutoxy-4-(8-(4-ethyl-3-(methoxymethyl)piperazin-1-yl)-7-methyl-5-oxo-1,3,4,5-tetrahydro-2H-chromeno[3,4-c]pyridine-3-carbonyl)-3-fluoro-N-(pyrrolidin-1-ylsulfonyl)benzamide] | 10 to 100 | 10 to 100 | F (<3)
COC[C@H]1CN(c2ccc3c4c(c(=O)oc3c2C)CN(C(=O)c2ccc(C(=O)NS(=O)(=O)N3CCCC3)c(OC3CCC3)c2F)CC4)CCN1C1CC1 [Example 173, (R)-2-cyclobutoxy-4-(8-(4-cyclopropyl-3-(methoxymethyl)piperazin-1-yl)-7-methyl-5-oxo-1,3,4,5-tetrahydro-2H-chromeno[3,4-c]pyridine-3-carbonyl)-3-fluoro-N-(pyrrolidin-1-ylsulfonyl)benzamide] | 1000 to 5000 | 1000 to 5000 | F (<3)
COC[C@H]1CN(c2ccc3c4c(c(=O)oc3c2C)CN(C(=O)c2ccc(C(=O)NS(=O)(=O)N3C5CCC3CC5)c(OC3CCC3)c2F)CC4)CCN1C [Example 176, (R)—N-((7-azabicyclo[2.2.1]heptan-7-yl)sulfonyl)-2-cyclobutoxy-3-fluoro-4-(8-(3-(methoxymethyl)-4-methylpiperazin-1-yl)-7-methyl-5-oxo-1,3,4,5-tetrahydro-2H-chromeno[3,4-c]pyridine-3-carbonyl)benzamide] | 10 to 100 | 10 to 100 | F (<3)
COC[C@H]1CN(c2ccc3c4c(c(=O)oc3c2C)CN(C(=O)c2ccc(C(=O)NS(=O)(=O)N3[C@H](C)CC[C@H]3C)c(OC3CCC3)c2F)CC4)CCN1C [Example 177, 2-cyclobutoxy-N-(((2R,5R)-2,5-dimethylpyrrolidin-1-yl)sulfonyl)-3-fluoro-4-(8-((R)-3-(methoxymethyl)-4-methylpiperazin-1-yl)-7-methyl-5-oxo-1,3,4,5-tetrahydro-2H-chromeno[3,4-c]pyridine-3-carbonyl)benzamide] | 100 to 1000 | 100 to 1000 | F (<3)
COC[C@H]1CN(c2cc(C)c3c4c(c(=O)oc3c2C)CN(C(=O)c2ccc(C(=O)NS(=O)(=O)N(C)C)c(OC3CCC3)c2C)CC4)CCN1C [Example 179] | 100 to 1000 | 10 to 100 | G (^ 3 to 9.0)
COC[C@H]1CN(c2cc(C)c3c4c(c(=O)oc3c2C)CN(C(=O)c2ccc(C(=O)NS(=O)(=O)C3(C)CC3)c(OC3CCC3)c2C)CC4)CCN1C [Example 180, (R)-2-cyclobutoxy-4-(8-(3-(methoxymethyl)-4-methylpiperazin-1-yl)-7,10-dimethyl-5-oxo-1,3,4,5-tetrahydro-2H-chromeno[3,4-c]pyridine-3-carbonyl)-3-methyl-N-((1-methylcyclopropyl)sulfonyl)benzamide] | 100 to 1000 | 10 to 100 | G (^ 3 to 9.0)
COC[C@H]1CN(c2ccc3c4c(c(=O)oc3c2)CN(C(=O)c2ccc(C(=O)NS(=O)(=O)N3CCCC3)c(OC3CCC3)c2F)CC4)CCN1C [Example 182, (R)-2-cyclobutoxy-3-fluoro-4-(8-(3-(methoxymethyl)-4-methylpiperazin-1-yl)-5-oxo-1,3,4,5-tetrahydro-2H-chromeno[3,4-c]pyridine-3-carbonyl)-N-(pyrrolidin-1-ylsulfonyl)benzamide] | 1000 to 5000 | 100 to 1000 | G (^ 3 to 9.0)
COC[C@H]1CN(c2ccc3c4c(c(=O)oc3c2)CN(C(=O)c2ccc(C(=O)NS(=O)(=O)N3CCCC3)c(OC3CCCC3)c2F)CC4)CCN1C [Example 183, (R)-2-(cyclopentyloxy)-3-fluoro-4-(8-(3-(methoxymethyl)-4-methylpiperazin-1-yl)-5-oxo-1,3,4,5-tetrahydro-2H-chromeno[3,4-c]pyridine-3-carbonyl)-N-(pyrrolidin-1-ylsulfonyl)benzamide] | > 5000 | 100 to 1000 | H (>9.0 to 30)
COC[C@H]1CN(c2cc(C)c3c4c(c(=O)oc3c2C)CN(C(=O)c2ccc(C(=O)NS(=O)(=O)N3CCCC3)cc2Cl)CC4)CCN1C [Example 184, (R)-3-chloro-4-(8-(3-(methoxymethyl)-4-methylpiperazin-1-yl)-7,10-dimethyl-5-oxo-1,3,4,5-tetrahydro-2H-chromeno[3,4-c]pyridine-3-carbonyl)-N-(pyrrolidin-1-ylsulfonyl)benzamide] | 1000 to 5000 | 100 to 1000 | J (>30)
COC[C@H]1CN(c2cc(C)c3c4c(c(=O)oc3c2C)CN(C(=O)c2ccc(C(=O)NS(=O)(=O)N3C5CCC3CC5)cc2Cl)CC4)CCN1C [Example 185, (R)-N-((7-azabicyclo[2.2.1]heptan-7-yl)sulfonyl)-3-chloro-4-(8-(3-(methoxymethyl)-4-methylpiperazin-1-yl)-7,10-dimethyl-5-oxo-1,3,4,5-tetrahydro-2H-chromeno[3,4-c]pyridine-3-carbonyl)benzamide] | > 5000 | 100 to 1000 | H (>9.0 to 30)
COC[C@H]1CN(c2cc(C)c3c4c(c(=O)oc3c2)CN(C(=O)c2ccc(C(=O)NS(=O)(=O)N3CCCC3)c(OC3CCC3)c2F)CC4)CCN1C [Example 186, (R)-2-cyclobutoxy-3-fluoro-4-(8-(3-(methoxymethyl)-4-methylpiperazin-1-yl)-10-methyl-5-oxo-1,3,4,5-tetrahydro-2H-chromeno[3,4-c]pyridine-3-carbonyl)-N-(pyrrolidin-1-ylsulfonyl)benzamide] | 100 to 1000 | 100 to 1000 | F (<3)
COC[C@H]1CN(c2cc(C)c3c4c(c(=O)oc3c2)CN(C(=O)c2ccc(C(=O)NS(=O)(=O)N3CCCC3)c(OC3CCCC3)c2F)CC4)CCN1C [Example 187, (R)-2-(cyclopentyloxy)-3-fluoro-4-(8-(3-(methoxymethyl)-4-methylpiperazin-1-yl)-10-methyl-5-oxo-1,3,4,5-tetrahydro-2H-chromeno[3,4-c]pyridine-3-carbonyl)-N-(pyrrolidin-1-ylsulfonyl)benzamide] | > 5000 | 100 to 1000 | H (>9.0 to 30)

From patent publication US12662489B2 (Sitryx Therapeutics Limited, priority 2023, dated 2026)
